Where two headings read alike, the source gives them in different places.
How the values were obtained:
[1] = molecular target: C-Raf kinase (SEQ. ID NO: 3) (Homo sapiens (Human), UniProt P04049, Y340D/Y341D); test: Biochemical Assay for C-Raf (1); details: Table J
Procedure: Biochemical Assay for C-Raf (1)
(§1) Activity of C-Raf kinase (SEQ. ID NO: 3) was determined spectroscopically using a coupled pyruvate kinase/lactate dehydrogenase assay that continuously monitors the ATP hydrolysis-dependent oxidation of NADH (e.g., Schindler et al., Science, 2000, 289, 1938-1942). Assays were conducted in 384-well plates (100 μL final volume) using 0.43 nM C-Raf (Sigma), 1.5 units pyruvate kinase, 2.1 units lactate dehydrogenase, 1 mM phosphoenol pyruvate, 0.28 mM NADH, 30.1 nM MEK (SignalChem), and 1 mM ATP in assay buffer (100 mM Tris, Ph 7.5, 15 mM MgCl2, 0.5 mM DTT, 0.1% octyl-glucoside, 0.002% (w/v) BSA, and 0.002% Triton X-100). Inhibition of C-Raf was measured by adding serial diluted test compound (final assay concentration of 1% DMSO). A decrease in absorption at 340 nm was monitored continuously for 6 h at 30° C. on a multi-mode microplate reader (BioTek). The reaction rate was calculated using the 4 to 5 h time frame. The reaction rate at each concentration of compound was converted to percent inhibition using controls (i.e., reaction with no test compound and reaction with a known inhibitor) and IC50 values were calculated by fitting a four-parameter sigmoidal curve to the data using Prism (GraphPad software).

[2] = molecular target: A-Raf kinase (SEQ. ID No: 1) (Homo sapiens (Human), UniProt P10398, Y301D/Y302D); test: Biochemical Assay for A-Raf (1); details: Table J
Procedure: Biochemical Assay for A-Raf (1)
as §1, with “A-Raf” for “C-Raf”, “No: 1)” for “NO: 3)”, “5.55” for “0.43”, “pH” for “Ph”

A375 cells = test: A375 Cell Proliferation Assay (1); format: cell-based; details: Homo sapiens, A-375
Procedure: A375 Cell Proliferation Assay (1)
A375 cells (catalog (#CRL-1619) are obtained from the American Type Culture Collect (ATTC, Manassas, VA). Briefly, cells were grown in DMEM High Glucose supplemented with 10% characterized fetal bovine serum (Invitrogen, Carlsbad, CA) and 1% Penicillin/Streptomycin/L-Glutamine at 37° C., 5% CO2, and 95% humidity. Cells are expanded until reaching 70-95% confluency at which point they are sub-cultured or harvested for assay use. A serial dilution of test compound is dispensed into a 96-well black clear bottom plate in triplicate. Two thousand five hundred cells are added per well in 200 μL complete growth medium in the 96-well plate. Plates are incubated for 67-72 h at 37° C., 5% CO2, and 95% humidity. At the end of the incubation, 40 μL of a 440 μM solution of resazurin (Sigma, St. Louis, MO) in PBS is added to each well of the plate and plates are incubated for an additional 5-6 h at 37° C., 5% CO2, and 95% humidity. Plates are read on a Synergy2 or equivalent reader (Biotek, Winooski VT) using an excitation of 540 nm and an emission of 600 nm. Data is analyzed using Prism software (GraphPad, San Diego, CA) to calculate IC50 values.

[3] = molecular target: B-Raf kinase (SEQ. ID NO: 2) (Homo sapiens (Human), UniProt P15056); test: Biochemical Assay for B-Raf (1); details: Table J
Procedure: Biochemical Assay for B-Raf (1)
as §1, with “B-Raf” for “C-Raf”, “2)” for “3)”, “0.13” for “0.43”

[4] = molecular target: B-Raf (V600E) (SEQ. ID NO: 4) kinase (Homo sapiens (Human), UniProt P15056, V600E); test: Biochemical Assay for B-Raf (V600E) (1); details: Table J, BRAF V600E
Procedure: Biochemical Assay for B-Raf (V600E) (1)
Activity of B-Raf (V600E) (SEQ. ID NO: 4) kinase was determined spectroscopically using a coupled pyruvate kinase/lactate dehydrogenase assay that continuously monitors the ATP hydrolysis-dependent oxidation of NADH (e.g., Schindler et al., Science, 2000, 289, 1938-1942). Assays were conducted in 384-well plates (100 μL final volume) using 0.03 nM B-Raf (SignalChem), 1.5 units pyruvate kinase, 2.1 units lactate dehydrogenase, 1 mM phosphoenol pyruvate, 0.28 mM NADH, 30.1 nM MEK (SignalChem), and 1 mM ATP in assay buffer (100 mM Tris, Ph 7.5, 15 mM MgCl2, 0.5 mM DTT, 0.1% octyl-glucoside, 0.002% (w/v) BSA, and 0.002% Triton X-100). Inhibition of B-Raf (V600E) was measured by adding serial diluted test compound (final assay concentration of 1% DMSO). A decrease in absorption at 340 nm was monitored continuously for 6 h at 30° C. on a multi-mode microplate reader (BioTek). The reaction rate was calculated using the 3 to 4 h time frame. The reaction rate at each concentration of compound was converted to percent inhibition using controls (i.e., reaction with no test compound and reaction with a known inhibitor) and IC50 values were calculated by fitting a four-parameter sigmoidal curve to the data using Prism (GraphPad software).

[5] = assay version (1), read-out: CRAF (1) IC50
[6] = assay version (1), read-out: ARAF (1) IC50
[7] = assay version (1), read-out: BRAF (1) IC50
[8] = assay version (1), read-out: BRAF VE (1) IC50
[9] = biochemical assay (1), read-out: CRAF (1)
[10] = biochemical assay (1), read-out: ARAF (1)
[11] = biochemical assay (1), read-out: BRAF (1)
[12] = biochemical assay (1), read-out: BRAF VE (1)

Chain of A-Raf kinase (SEQ. ID No: 1) (P10398 other isoform, or with tags, fused parts or gaps Y301D (already in the parent)/Y302D (already in the parent)): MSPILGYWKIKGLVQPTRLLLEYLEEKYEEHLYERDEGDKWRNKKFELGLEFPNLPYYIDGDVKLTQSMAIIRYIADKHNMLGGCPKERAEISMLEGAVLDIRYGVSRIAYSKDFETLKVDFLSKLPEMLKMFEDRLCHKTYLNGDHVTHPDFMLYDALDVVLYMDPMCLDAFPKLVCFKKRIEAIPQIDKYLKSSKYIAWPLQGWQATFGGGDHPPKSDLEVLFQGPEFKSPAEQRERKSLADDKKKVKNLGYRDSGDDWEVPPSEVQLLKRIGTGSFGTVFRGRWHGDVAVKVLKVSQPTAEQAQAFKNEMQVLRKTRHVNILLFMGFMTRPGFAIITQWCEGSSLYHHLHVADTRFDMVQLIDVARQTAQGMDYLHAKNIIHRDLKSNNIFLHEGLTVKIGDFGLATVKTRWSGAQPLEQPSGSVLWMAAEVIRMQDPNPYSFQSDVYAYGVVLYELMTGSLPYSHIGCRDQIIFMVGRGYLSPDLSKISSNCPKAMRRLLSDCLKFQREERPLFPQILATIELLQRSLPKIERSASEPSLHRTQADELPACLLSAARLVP
Chain of B-Raf (V600E) (SEQ. ID NO: 4) kinase (P15056 416-766 V600E): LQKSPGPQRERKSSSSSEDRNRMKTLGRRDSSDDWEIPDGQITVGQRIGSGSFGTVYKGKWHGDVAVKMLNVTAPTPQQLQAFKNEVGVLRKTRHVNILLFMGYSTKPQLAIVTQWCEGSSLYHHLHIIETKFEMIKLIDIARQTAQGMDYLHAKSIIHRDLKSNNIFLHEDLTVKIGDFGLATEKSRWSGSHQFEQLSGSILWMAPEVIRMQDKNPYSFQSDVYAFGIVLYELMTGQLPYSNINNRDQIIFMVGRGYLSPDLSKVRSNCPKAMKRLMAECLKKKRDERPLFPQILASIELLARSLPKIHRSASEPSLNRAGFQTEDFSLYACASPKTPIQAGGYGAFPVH
Chain of B-Raf kinase (SEQ. ID NO: 2) (P15056 416-766): as the sequence (P15056 416-766 V600E) above, with E185V counted along it
Chain of C-Raf kinase (SEQ. ID NO: 3) (P04049 307-648 Y340D/Y341D): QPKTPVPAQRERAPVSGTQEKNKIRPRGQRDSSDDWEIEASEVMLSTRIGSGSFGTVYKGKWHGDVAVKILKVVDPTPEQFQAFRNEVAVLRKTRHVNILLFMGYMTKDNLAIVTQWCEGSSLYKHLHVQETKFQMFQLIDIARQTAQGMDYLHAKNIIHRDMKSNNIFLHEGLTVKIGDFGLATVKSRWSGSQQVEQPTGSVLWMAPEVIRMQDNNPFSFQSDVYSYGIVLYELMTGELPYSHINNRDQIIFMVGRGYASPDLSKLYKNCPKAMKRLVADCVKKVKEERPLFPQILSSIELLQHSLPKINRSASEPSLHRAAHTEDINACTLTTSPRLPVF

Row | SMILES | IC50 [1, 5] [nM] | IC50 [2, 6] [nM] | IC50 (A375 cells) [nM] | IC50 [3, 7] [nM] | IC50 [4, 8] [nM] | IC50 [1, 9] [nM] | IC50 [2, 10] [nM] | IC50 [3, 11] [nM] | IC50 [4, 12] [nM]
1 | CCOc1cc(-c2cc(NC(=O)c3ccnc(C(F)(F)F)c3)c(F)cc2C)cc(-c2ccnc(NC(C)=O)c2)n1 [Example 9] | ≤ 100 | 1000 to 10000 | 100 to 500 | 100 to 500 | ≤ 100 |  |  |  | 
2 | Cc1ccc(NC(=O)c2ccnc(C(F)(F)F)c2)cc1-c1cccc(-c2ccnc(N)c2)c1 [Example 38] | ≤ 100 | 1000 to 10000 | 1000 to 10000 | ≤ 100 | ≤ 100 |  |  |  | 
3 | Cc1ncc(NC(=O)C2CCOC2)cc1-c1nccc(-c2ccnc(NC(=O)C3CC3)c2)n1 (stereo not drawn) [Example 335] | 1000 to 10000 | 1000 to 10000 |  | 1000 to 10000 | 1000 to 10000 |  |  |  | 
4 | Cc1ncc(NC(=O)C2CCOCC2)cc1-c1ccnc(-c2ccnc(NC(=O)C3CC3)c2)n1 [Example 336] | 1000 to 10000 | 1000 to 10000 |  | 1000 to 10000 | 500 to 1000 |  |  |  | 
5 | Cc1ncc(NC(=O)C2CCOC2)cc1-c1ccnc(-c2ccnc(NC(=O)C3CC3)c2)n1 (stereo not drawn) [Example 337] | 1000 to 10000 | 1000 to 10000 |  | 1000 to 10000 | 1000 to 10000 |  |  |  | 
6 | Cc1ncc(NC(=O)C2CCC3(CC2)COC3)cc1-c1nccc(-c2ccnc(NC(=O)C3CC3)c2)n1 [Example 338] | 1000 to 10000 | 1000 to 10000 |  | 1000 to 10000 | 500 to 1000 |  |  |  | 
7 | Cc1ncc(NC(=O)C2CCOCC2)cc1-c1nccc(-c2ccnc(NC(=O)C3CC3)c2)n1 [Example 339] | 1000 to 10000 | 1000 to 10000 |  | 1000 to 10000 | 100 to 500 |  |  |  | 
8 | Cc1ccc(NC(=O)C23CCC(C#N)(CC2)CC3)cc1-c1ccnc(-c2ccnc(NC(=O)C3CC3)c2)n1 [Example 340] | 100 to 500 | 1000 to 10000 |  | 1000 to 10000 | ≤ 100 |  |  |  | 
9 | Cc1ncc(NC(=O)C23CCC(C#N)(CC2)CC3)cc1-c1cccc(-c2ccnc(NC(=O)C3CC3)c2)n1 [Example 342] | 1000 to 10000 | 1000 to 10000 |  | 1000 to 10000 | 1000 to 10000 |  |  |  | 
10 | CO[C@H]1CC[C@H](C(=O)Nc2cnc(C)c(-c3cccc(-c4ccnc(NC(=O)C5CC5)c4)n3)c2)CC1 [Example 343] | 500 to 1000 | 1000 to 10000 |  | 1000 to 10000 | 100 to 500 |  |  |  | 
11 | Cc1ccc(NC(=O)C2CCN(C)C2)cc1-c1cccc(-c2cc(NC(=O)C3CC3)ncn2)c1 (stereo not drawn) [Example 344] | 500 to 1000 | 1000 to 10000 |  | 1000 to 10000 | 100 to 500 |  |  |  | 
12 | Cc1ccc(NC(=O)C2CCOC2)cc1-c1cccc(-c2cc(NC(=O)C3CC3)ncn2)c1 (stereo not drawn) [Example 345] | 100 to 500 | 1000 to 10000 |  | 1000 to 10000 | ≤ 100 |  |  |  | 
13 | Cc1ncc(NC(=O)C2CCOCC2)cc1-c1cccc(-c2cc(NC(=O)C3CC3)ncn2)c1 [Example 349] | 500 to 1000 | 1000 to 10000 |  | 1000 to 10000 | 100 to 500 |  |  |  | 
14 | Cc1ncc(NC(=O)C2CNCCO2)cc1-c1cccc(-c2cc(NC(=O)C3CC3)ncn2)c1 (stereo not drawn) [Example 350] | 1000 to 10000 | 1000 to 10000 |  | 1000 to 10000 | 1000 to 10000 |  |  |  | 
15 | Cc1ncc(NC(=O)C2CCN(C)C2)cc1-c1cccc(-c2cc(NC(=O)C3CC3)ncn2)c1 (stereo not drawn) [Example 351] | 1000 to 10000 | 1000 to 10000 |  | 1000 to 10000 | 500 to 1000 |  |  |  | 
16 | Cc1ncc(NC(=O)C2CCOC2)cc1-c1cccc(-c2cc(NC(=O)C3CC3)ncn2)c1 (stereo not drawn) [Example 352] | 1000 to 10000 | 1000 to 10000 |  | 1000 to 10000 | 500 to 1000 |  |  |  | 
17 | Cc1ncc(NC(=O)CN2CCOCC2)cc1-c1cccc(-c2cc(NC(=O)C3CC3)ncn2)c1 [Example 353] | 500 to 1000 | 1000 to 10000 |  | 1000 to 10000 | 100 to 500 |  |  |  | 
18 | Cc1ncc(NC(=O)CC2CC(F)(F)C2)cc1-c1nccc(-c2ccnc(NC(=O)C3CC3)c2)n1 [Example 354] | 100 to 500 | 1000 to 10000 |  | 500 to 1000 | ≤ 100 |  |  |  | 
19 | Cc1ncc(NC(=O)CC2COC2)cc1-c1nccc(-c2ccnc(NC(=O)C3CC3)c2)n1 [Example 355] | 1000 to 10000 | 1000 to 10000 |  | 1000 to 10000 | 1000 to 10000 |  |  |  | 
20 | Cc1ncc(NC(=O)CC2COC2)cc1-c1cccc(-c2cc(NC(=O)C3CC3)ncn2)c1 [Example 356] | 1000 to 10000 | 1000 to 10000 |  | 1000 to 10000 | 500 to 1000 |  |  |  | 
21 | COC(=O)Nc1cc(-c2cnnc(-c3cc(NC(=O)c4ccnc(C(C)(C)C#N)c4)ccc3F)c2)ccn1 [Example 390] |  |  |  |  |  | ≤ 100 | 1000 to 10000 | ≤ 100 | 100 to 500
22 | Cc1ccc(NC(=O)Cn2cc(C(C)C)nn2)cc1-c1cncc(-c2cc(N)ncn2)c1 [Example 426] |  |  |  |  |  | 500 to 1000 | 1000 to 10000 | 1000 to 10000 | 1000 to 10000

Source: patent US12319655B2, “RAF kinase inhibitors and methods of use thereof” (Deciphera Pharmaceuticals, LLC, priority 2021, dated 2025)
